Reference: patent US3989835A, “Method of using 6-substituted amino phenyl-2,3,5,6-tetra-hydro[2,1-b]thiazoles for controlling gastrointestinal nematodes” (American Cyanamid Company, priority 1974, dated 1976)
Counter-ions that a name gives are not always drawn. Like-named read-outs stand apart in the source and are kept apart here.

Assays:
Nematospiroides dubius = experiment: Anthelmintic efficacy against N. dubius in mice, single oral dose; type: in vivo, Nematospiroides dubius (in albino female mice); settings: for inhibition in vivo at 20 mg/kg: single oral dose 20 mg./Kg.; for inhibition in vivo at 40 mg/kg: single oral dose 40 mg./Kg.; for inhibition in vivo at 4 mg/kg: single oral dose 4.0 mg./Kg.; for inhibition in vivo at 0.625 mg/kg: single oral dose 0.625 mg./Kg., adjusted to molar equivalents of tetramisole free base; for inhibition in vivo at 7.5 mg/kg: single oral dose 7.5 mg./Kg.
Protocol: Albino female mice are each inoculated with about 20 infectious larvae of Nematospiroides dubius. This nematode is a representative of the economical important trichostrongylis worms of ruminants and other hosts, and of nematodes in general. Twenty-two days after inoculation, groups of four randomly selected mice containing adult N. dubius are given single oral doses of test compounds dissolved or suspended in 0.4 ml. of water per 20 gram mouse. At 26 or 27 days after inoculation, treated mice and in each test four randomly selected groups of untreated mice are necropsied. The number of worms in the small intestine of each mouse are determined by microscopic examination. Average worm numbers for each treated group and for the untreated controls are computed and the percent efficacy determined by the customary formula:
(Average Worms in Control - Average Worms in Treated)/(Average Worms in Control) X 100.

in vivo = settings: for Approx. LD50 /ED50: chemotherapeutic index, mouse oral, N. dubius
Text: Data on the acute oral toxicity to mice of various single oral doses of the above compounds and several analogs were obtained by conventional procedures, (Table IX hereinafter).

[1] = Heligmosomoides polygyrus, po, as Base, single oral dose, mice, > indicates inactive at dose shown, read-out: Approx. ED50
[2] = Heligmosomoides polygyrus, po, mouse oral, Table IX, read-out: Approx. ED50 vs. N. dubius
[3] = Heligmosomoides polygyrus, po, single oral dose 10 mg./Kg., molar-adjusted, read-out: Percent Nematospiroides Activity
[4] = Heligmosomoides polygyrus, po, molar-adjusted, read-out: Percent Nematospiroides Activity
[5] = mouse, in vivo, po, Approx. LD50, mouse oral, Table IX
[6] = mouse, in vivo, po, LD50, mice, adjusted to molar equivalents of tetramisole free base
[7] = single oral dose 80 Mg./Kg., mice
[8] = single oral dose 120 Mg./Kg., mice
[9] = single oral dose 50 Mg./Kg., mice
[10] = single oral dose 100 Mg./Kg., mice
[11] = Heligmosomoides polygyrus, po, single oral dose 2.0 mg./Kg., molar-adjusted, read-out: Percent Nematospiroides Activity
[12] = Heligmosomoides polygyrus, po, single oral dose 5.0 mg./Kg., molar-adjusted, read-out: Percent Nematospiroides Activity
[13] = Heligmosomoides polygyrus, po, single oral dose 1.25 mg./Kg., molar-adjusted, read-out: Percent Nematospiroides Activity
[14] = single oral dose 5.0 mg./Kg., molar-adjusted
[15] = single oral dose 10 mg./Kg., molar-adjusted
[16] = single oral dose 60 Mg./Kg., mice
[17] = Heligmosomoides polygyrus, po, read-out: Percent Nematospiroides Activity
[18] = single oral dose 40 Mg./Kg., mice

Row | SMILES | ED50 (Nematospiroides dubius; [1]) | ED50 (Nematospiroides dubius; [2]) | inhibition in vivo at 10 mg/kg (Nematospiroides dubius; [3]) | LD50 (in vivo; [5]) | LD50 (in vivo; [6]) | inhibition in vivo at 2 mg/kg (Nematospiroides dubius; [11]) | inhibition in vivo at 5 mg/kg (Nematospiroides dubius; [12]) | inhibition in vivo at 1.25 mg/kg (Nematospiroides dubius; [13]) | also measured
1 | CCC(CC)C(=O)Nc1cccc(C2CN3CCSC3=N2)c1 (racemic) [m-NH-CO-CH(C2 H5)2 dl] | 7.5 mg/kg | 7.5 mg/kg | 85% | 160 mg/kg | ~160 mg/kg |  |  |  | inhibition in vivo at 20 mg/kg (Nematospiroides dubius; [4]): 99%; inhibition in vivo at 40 mg/kg (Nematospiroides dubius; [4]): 100%; Approx. LD50 /ED50 (in vivo; Table IX): 21; Dead/Total (in vivo; [7]): 0/6; Dead/Total (in vivo; [8]): 0/6; Dead/Total (in vivo; single oral dose 180 Mg./Kg., mice): 3/6
2 | COC(=O)Nc1cccc(C2CN3CCSC3=N2)c1 (racemic) [m-NH-CO-OCH3 dl, dl-m-(2,3,5,6-tetrahydroimidazo[2,1-b]thiazol-6-yl)carbanilic acid methyl ester, hydrochloride] | 15 mg/kg | 15 mg/kg | 25% | 150 mg/kg | ~125 mg/kg |  |  |  | inhibition in vivo at 20 mg/kg (Nematospiroides dubius; [4]): 96%; inhibition in vivo at 40 mg/kg (Nematospiroides dubius; [4]): 100%; Approx. LD50 /ED50 (in vivo; Table IX): 10; Dead/Total (in vivo; [9]): 0/5; Dead/Total (in vivo; [10]): 0/5; Dead/Total (in vivo; single oral dose 150 Mg./Kg., mice): 3/5; Dead/Total (in vivo; single oral dose 200 Mg./Kg., mice): 5/5
3 | O=CNc1cccc(C2CN3C=CSC3=N2)c1 (centres unmarked) [5,6-dihydro HNCHO] |  |  | 100% |  | ~150 mg/kg |  |  |  | inhibition in vivo at 4 mg/kg (Nematospiroides dubius; [4]): 64%
4 | Cl.Cl.Nc1cccc(C2CN3C=CSC3=N2)c1 (stereo not drawn) [5,6-dihydro m-NH2 dl, 6-(m-Aminophenyl)-5,6-dihydroimidazo[2,1-b]thiazole dihydrochloride] | 1.5 mg/kg | 1.5 mg/kg | 100% | 10 mg/kg | ~80 mg/kg | 53% | 96% |  | 
5 | O=C(CCl)Nc1cccc(C2CN3CCSC3=N2)c1 (centres unmarked) [H--N--CO--CH2 Cl] |  |  |  |  | 50 to 60 mg/kg |  | 100% | 84% | inhibition in vivo at 40 mg/kg (Nematospiroides dubius; [4]): 100%; inhibition in vivo at 50 mg/kg (Nematospiroides dubius; Heligmosomoides polygyrus, po, single oral dose 50 mg./Kg., molar-adjusted, read-out: Percent Nematospiroides Activity): 100%
6 | CC(=O)Nc1cccc(C2CN3CCSC3=N2)c1 (centres unmarked) [HN--CO--CH3] |  |  | 100% |  | 40 to 60 mg/kg |  |  |  | inhibition in vivo at 4 mg/kg (Nematospiroides dubius; [4]): 66%
7 | CCCCCCC(=O)Nc1cccc(C2CN3CCSC3=N2)c1 (centres unmarked) [HNCO(CH2)5 CH3] |  |  |  |  |  |  |  |  | Percent Nematospiroides Activity (Nematospiroides dubius; single oral dose 1.25 mg./Kg., molar-adjusted): 53%; Percent Nematospiroides Activity (Nematospiroides dubius; single oral dose 2.0 mg./Kg., molar-adjusted): 99%; Percent Nematospiroides Activity (Nematospiroides dubius; [14]): 100%; Percent Nematospiroides Activity (Nematospiroides dubius; [15]): 100%; LD50 (in vivo; mice, adjusted to molar equivalents of tetramisole free base): 20 to 25 mg/kg
8 | CC(C)(C)CC(=O)Nc1cccc(C2CN3CCSC3=N2)c1 (centres unmarked) [HNCOCH2 C(CH3)2] |  |  | 98% |  | 80 to 100 mg/kg |  | 59% |  | 
9 | Nc1ccc([N+](=O)[O-])c(C2CN3CCSC3=N2)c1 (centres unmarked) [R1 =H R4 =NO2] |  | 2 mg/kg | 100% | 120 mg/kg | 120 to 140 mg/kg | 43% |  |  | ED50 (Nematospiroides dubius; Heligmosomoides polygyrus, po, continuation of Table X (R1/R4 disubstituted), read-out: ED50): 2 mg/kg; inhibition in vivo at 4 mg/kg (Nematospiroides dubius; [4]): 89%; Approx. LD50 /ED50 (in vivo; Table IX): 60; Dead/Total (in vivo; [16]): 0/6; Dead/Total (in vivo; [8]): 2/6; Dead/Total (in vivo; single oral dose 240 Mg./Kg., mice): 6/6
10 | O=C(C=Cc1ccccc1)Nc1cccc(C2CN3CCSC3=N2)c1 (centres unmarked) [Table XII b1827] |  |  | 100% |  | ~90 mg/kg | 67% | 100% | 60% | 
11 | O=C(Nc1cccc(C2CN3CCSC3=N2)c1)c1ccccc1 (centres unmarked) [Table XII b1839] |  |  |  |  | 50 to 60 mg/kg | 100% |  | 94% | 
12 | COc1ccc(C(=O)Nc2cccc(C3CN4CCSC4=N3)c2)cc1 (centres unmarked) [Table XII b1843] |  |  |  |  | 60 to 80 mg/kg | 95% | 100% | 58% | inhibition in vivo at 0.625 mg/kg (Nematospiroides dubius; [17]): 56%
13 | O=C(Nc1cccc(C2CN3CCSC3=N2)c1)c1ccc(Cl)cc1 (centres unmarked) [Table XII b1847] |  |  |  |  | ~80 mg/kg | 90% | 100% | 63% | inhibition in vivo at 0.625 mg/kg (Nematospiroides dubius; [17]): 40%
14 | O=C(Nc1cccc(C2CN3CCSC3=N2)c1)c1cccc(Cl)c1 (centres unmarked) [Table XII b1851] |  |  |  |  | 80 to 100 mg/kg | 95% | 97% | 52% | inhibition in vivo at 0.625 mg/kg (Nematospiroides dubius; [17]): 40%
15 | O=C(Nc1cccc(C2CN3CCSC3=N2)c1)c1ccc(Cl)c(Cl)c1 (centres unmarked) [Table XII b1854] |  |  |  |  | 80 to 100 mg/kg | 92% | 95% | 52% | inhibition in vivo at 0.625 mg/kg (Nematospiroides dubius; [17]): 58%
16 | O=C(Nc1cccc(C2CN3CCSC3=N2)c1)c1ccc([N+](=O)[O-])cc1 (centres unmarked) [Table XII b1857] |  |  | 100% |  | 60 to 90 mg/kg | 78% | 100% | 65% | 
17 | O=C(Nc1cccc(C2CN3CCSC3=N2)c1)c1ccco1 (centres unmarked) [Table XII b1864] |  |  | 99% |  | 80 to 100 mg/kg | 37% | 85% |  | inhibition in vivo at 20 mg/kg (Nematospiroides dubius; [4]): 100%
18 | O=C(Nc1cccc(C2CN3C=CSC3=N2)c1)c1ccccc1 (centres unmarked) [Table XIV b1987] |  |  | 100% |  | ~120 mg/kg |  | 94% |  | Percent Nematospirides Activity (Nematospiroides dubius; single oral dose 2.5 mg./Kg., molar-adjusted): 73%
19 | CC(=O)Nc1cccc(C2CN3CCSC3=N2)c1 (stereo not drawn) [m-NH--CO--CH3 dl, 3'-(2,3,5,6-Tetrahydroimidazo[2,1-b]thiazol-6-yl)acetanilide] | 4 mg/kg | 3 to 4 mg/kg |  | > 10 mg/kg |  |  |  |  | 
20 | CC(C)C(=O)Nc1cccc(C2CN3CCSC3=N2)c1.Cl (stereo not drawn) [m-NH--CO--CH(CH3)2 dl, 3'-(2,3,5,6-tetrahydroimidazo[2,1-b]thiazol-6-yl)isobutyranilide hydrochloride] | 3 mg/kg | 3 mg/kg | 100% | ~60 mg/kg | ~75 mg/kg |  | 99% |  | inhibition in vivo at 20 mg/kg (Nematospiroides dubius; [4]): 100%; Approx. LD50 /ED50 (in vivo; Table IX): 20; Dead/Total (in vivo; [18]): 1/6; Dead/Total (in vivo; [7]): 5/6; Dead/Total (in vivo; [8]): 6/6
21 | CC(C)C(=O)Nc1cccc(C2CN3CCSC3=N2)c1 (centres unmarked) [m-NH--CO--CH(CH3)2 l] | 1 mg/kg | 1 mg/kg |  | 50 mg/kg | 60 to 75 mg/kg | 96% |  | 77% | inhibition in vivo at 0.625 mg/kg (Nematospiroides dubius; [17]): 30%; inhibition in vivo at 7.5 mg/kg (Nematospiroides dubius; [4]): 97%; Percent Nematospiroides Activity (Nematospiroides dubius; [14]): 100%; Percent Nematospiroides Activity (Nematospiroides dubius; [15]): 100%; Approx. LD50 /ED50 (in vivo; Table IX): 50; Dead/Total (in vivo; [9]): 2/8; Dead/Total (in vivo; [10]): 8/8
22 | CC(C)Nc1cccc(C2CN3CCSC3=N2)c1 (stereo not drawn) [m-NH-CH(CH3)2 dl, 6-(m-isopropylaminophenyl)-2,3,5,6-tetrahydroimidazo[2,1-b]thiazole] | 5 mg/kg | 5 mg/kg | 100% | ~40 mg/kg | ~50 mg/kg |  | 55% |  | inhibition in vivo at 7.5 mg/kg (Nematospiroides dubius; [4]): 89%; inhibition in vivo at 20 mg/kg (Nematospiroides dubius; [4]): 100%; inhibition in vivo at 40 mg/kg (Nematospiroides dubius; [4]): 100%; Approx. LD50 /ED50 (in vivo; Table IX): 8; Dead/Total (in vivo; [18]): 2/6; Dead/Total (in vivo; [16]): 3/6; Dead/Total (in vivo; [7]): 4/6; Dead/Total (in vivo; [10]): 5/6
